“Also recorded” adds a separate entry of the source.
Tests used:
[1] = test system: CHO-K1 cells expressed with sGCα-CGY or sGCβ-CGY; experiment: CFP/YFP emission ratio in CHO-K1 cells expressing sGCα-CGY or sGCβ-CGY alone; type: cell-based; settings: subsequent addition of 2 mM 8-Br-cGMP after 50 nM NOC-7
[2] = test system: CHO-K1 cells expressing NOA-1; experiment: CFP/YFP emission ratio of NOA-1 in CHO-K1 cells upon NOC-7 / NO stimulation; type: cell-based
Procedure: cDNAs respectively expressing the hybrid proteins were constructed. The hybrid proteins respectively comprise cGMP-visualization probe (hereinafter described as CGY) connected with C-terminus of sGCα or sGCβ through the linker of SEC ID NO.1 (GGEQKLISEEDLLESR). The CYG was prepared according to the method in Patent documents 1 and 2. The heterodimmer of the hybrid proteins was named as “NOA-1” (fluorescent indicator for NO with a signal amplifier) (FIGS. 2A and B). At N-terminus of NOA-1, FLAG tag of SEC ID NO.2 (MDYKDDDDK) may be attached.
(§1) Two cDNAs were introduced into CHO K1 cells having little amount of endogenous sGC thereby coexpressing both sGCα-CGY and sGCβ-CGY in the cells.
In the same manner as in Example 1, both sGCα-CGY and sGCβ-CGY were coexpressed in CHO-K1 cells.
In the same manner as in Example 1, the CHO-K1 cells coexpressed with both sGCα and sGCβ were stimulated with various amount of NOC-7 to measure the changes of CFP/YFP emission ratio dependent to NO concentrations (FIG. 6).
In the same manner as in Example 1, the CHO-K1 cells expressing NOA-1 were stimulated with various amount of NOC-7 to measure the changes of CFP/YFP emission ratio by NO and 8-Br-cGMP stimulations (FIGS. 7A and 7B).
The NO-dependent FRET response of NOA-1 was confirmed by using NO solutions prepared by bubbling NO gas. […] Importantly, NOA-1 senses not only an increase in the NO concentration but also its removal by oxidation and/or volatilization. This NO-dependent reversible response of NOA-1 is caused by the reversible binding of NO to the heme group in NOA-1 and endogenous phosphodiesterases that immediately hydrolyze the generated cGMP molecules after the removal of NO.

[3] = test system: CHO-K1 cells expressed with NOA-1; experiment: Selectivity of NOA-1 FRET response (CO, natriuretic peptide, cAMP generation); type: cell-based; settings: for CFP/YFP emission ratio of NOA-1: excess concentration, several cultured cell types including CHO-K1 cells
Description: As to the selectivity of NOA-1, the FRET response of NOA-1 for carbon monoxide (CO) was examined.
CO is a sGC activator but has a lower affinity with sGC than NO. In addition, the CO-bound sGC is known to have much lower cyclase activity than NO-bound sGC because of each different coordination to the heme iron. Physiologically generated CO thus appears not to affect the response of NOA-1.
Effect of natriuretic peptide stimulation or cAMP generation on the FRET response of NOA-1 was examined.

[4] = target: T1, nitric oxide synthase (NOS) (Bos taurus, UniProt P29473); experiment: NOS inhibitor effect on NOA-1 emission ratio in endothelial cells; type: cell-based, bovine; settings: 1 mM L-NAME
T1 construct: endogenous in cells; host or cells: bovine pulmonary artery endothelial cells
T1 sequence (P29473 2-1205 limits assumed): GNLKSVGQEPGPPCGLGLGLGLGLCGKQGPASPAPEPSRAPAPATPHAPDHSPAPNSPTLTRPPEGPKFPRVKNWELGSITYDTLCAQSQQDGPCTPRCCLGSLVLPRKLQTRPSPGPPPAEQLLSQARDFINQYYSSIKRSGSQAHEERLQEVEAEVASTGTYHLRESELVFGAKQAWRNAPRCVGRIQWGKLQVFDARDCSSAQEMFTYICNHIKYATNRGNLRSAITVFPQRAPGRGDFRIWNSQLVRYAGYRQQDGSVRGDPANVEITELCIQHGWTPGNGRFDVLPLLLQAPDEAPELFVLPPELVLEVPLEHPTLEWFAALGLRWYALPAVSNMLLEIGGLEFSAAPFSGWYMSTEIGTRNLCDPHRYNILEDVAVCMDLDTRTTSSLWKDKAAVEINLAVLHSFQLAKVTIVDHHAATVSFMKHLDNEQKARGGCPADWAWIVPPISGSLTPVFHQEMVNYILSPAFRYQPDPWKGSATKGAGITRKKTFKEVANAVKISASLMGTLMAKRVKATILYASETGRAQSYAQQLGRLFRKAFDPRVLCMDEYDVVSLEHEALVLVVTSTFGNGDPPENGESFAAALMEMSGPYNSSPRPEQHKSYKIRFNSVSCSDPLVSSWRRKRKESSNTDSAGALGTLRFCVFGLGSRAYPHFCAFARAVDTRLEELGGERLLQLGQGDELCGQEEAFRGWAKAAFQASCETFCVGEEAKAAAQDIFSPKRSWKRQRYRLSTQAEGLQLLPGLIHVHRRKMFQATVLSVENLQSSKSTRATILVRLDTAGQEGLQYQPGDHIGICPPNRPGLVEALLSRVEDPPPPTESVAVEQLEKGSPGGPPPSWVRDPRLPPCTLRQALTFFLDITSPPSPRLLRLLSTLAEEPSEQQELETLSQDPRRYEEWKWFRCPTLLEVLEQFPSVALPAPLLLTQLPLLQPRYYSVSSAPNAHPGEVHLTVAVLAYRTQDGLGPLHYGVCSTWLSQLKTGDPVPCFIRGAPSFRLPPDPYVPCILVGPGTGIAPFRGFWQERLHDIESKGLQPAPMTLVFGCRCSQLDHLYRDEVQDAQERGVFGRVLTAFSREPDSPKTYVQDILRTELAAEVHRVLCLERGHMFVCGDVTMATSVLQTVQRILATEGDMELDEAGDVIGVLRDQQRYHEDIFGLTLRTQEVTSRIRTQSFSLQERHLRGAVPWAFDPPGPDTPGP
Procedure: (§2) (1) NOA-1 was expressed in endothelial cells from bovine pulmonary artery cultured in a serum-supplemented media. […] This is based on difference of basal NO concentration between CHO-K1 cell and vascular endothelial cell. (3) Endothelial cells and CHO-K1 cells were pretreated with an inhibitor for nitric oxide synthase (NOS), 1 mM L-NAME and the CFP/YFP emission ratio of NOA-1 was observed.

[5] = test system: nitric oxide synthase (NOS); experiment: NOS inhibitor effect on NOA-1 emission ratio in CHO-K1 cells; type: cell-based; settings: 1 mM L-NAME
Procedure: as §2

[6] = test system: phosphatidyl inositol 3-kinase (PI(3)K); experiment: PI(3)K inhibitor effect on basal NO (NOA-1 emission ratio) in endothelial cells; type: cell-based, bovine
Procedure: The stable generation of the basal NO concentration was examined in vascular endothelial cells cultured in a serum-containing medium.
That is, the endothelial cells expressing NOA-1 was added with 100 μM LY 294002), and the CFP/YFP emission ratio was monitored for the NO concentrations in the cells.

[7] = test system: endothelial cells from bovine pulmonary artery; experiment: NOA-1 CFP/YFP emission ratio in vascular endothelial cells; type: cell-based
Procedure: as §2
(4) The response of NOA-1 for excess NOC-7 between the endothelial and CHO-K1 cells was compared.
We stimulated the endothelial and CHO-K1 cells with 10 μM NOC-7, which generates enough concentration of NO to immediately saturate the NOA-1 response. […] As a result, in endothelial cells, the obtained change in the emission ratio upon the excess NOC-7 stimulation was actually only one-third of that in CHO-K1 cells (FIG. 13B).
(§3) (6) The basal concentration of NO in each vascular endothelial cell was measured. We first inhibited endogenous eNOS with 1 mM L-NAME to remove the basal NO and cGMP generated by the basal NO. The CFP/YFP emission ratios before and after the inhibition of endogenous eNOS, respectively, represent the basal and zero concentrations of NO in each endothelial cell (FIG. 15). To quantitate the basal concentration of NO, we subsequently added various concentrations of NO to each endothelial cell, in which eNOS activity was inhibited with L-NAME. The peak response of NOA-1 was plotted at each concentration of NO. Based on the obtained dose-response of NOA-1 for various concentrations of NO, we measured 1 nM of the basal NO concentration generated in each endothelial cell.

sGC = experiment: Block of the NOC-7 response of NOA-1 by sGC inhibitor pretreatment in CHO-K1 cells; type: cell-based; settings: cells pretreated with NS 2028 (100 μM, FIG. 3-b)
Description: as §1

phosphodiesterases (PDE) = experiment: Effect of PDE inhibitor on NOA-1 emission ratio in CHO-K1 cells; type: cell-based
Procedure: as §1
The latter recovery of the decreased emission ratio disappeared when the cells were pretreated with an inhibitor of phosphodiesterases (PDE) that hydrolyses cGMP, zaprinast (FIG. 3-c).
as §3

phosphodiesterases = experiment: PDE inhibitor effect on NOA-1 emission ratio in endothelial cells; type: cell-based, bovine; settings: 200 μM zaprinast; endothelial cells expressing NOA-1

Molecule: Nc1nc2c(nc(Br)n2[C@@H]2O[C@@H]3COP(=O)(O)O[C@H]3[C@H]2O)c(=O)[nH]1 [8-Br-cGMP]
- CFP/YFP emission ratio [1]: quick decrease
- plateau response of CFP/YFP emission ratio ([2]; addition of 2 mM 8-Br-cGMP after 100 nM NOC-7): did not further decrease

Molecule: [C-]#[O+] [CO, carbon monoxide]
- response of NOA-1 compared with that for 5 nM NO ([3]; 100 μM CO): transient but much smaller response
- CFP/YFP emission ratio ([3]; CO up to 10 μM): no significant change

Molecule: COC(=O)[C@@H](N)CCCNC(=N)N[N+](=O)[O-] [L-NAME]
- CFP/YFP emission ratio of NOA-1 [4]: gradually increased
- CFP/YFP emission ratio of NOA-1 [5]: no significant change

Molecule: O=c1cc(N2CCOCC2)oc2c(-c3ccccc3)cccc12 [LY 294002, 2-(4-morpholinyl)-8-phenyl-1(4H)-benzopyran-4-one]
- time to reach plateau of the emission ratio ([6]; 100 μM LY 294002): ≤ 25 min
- emission ratio ([6]; 100 μM LY 294002, endothelial cells expressing NOA-1): significantly increased
- effect on basal NO ([6]; endothelial cells, serum-containing medium): removed the basal NO concentration; also recorded: inhibitory effect on basal NO generation

Molecule: CNCCCNN(N=O)C(C)CO (stereo not drawn) [NOC-7, 3-(2-hydroxy-1-methylethyl-2-nitrosohydrazino)-N-methyl-1-propanamine]
- change in the emission ratio upon excess NOC-7 in endothelial cells relative to CHO-K1 cells ([7]; 10 μM NOC-7): one-third
- emission ratios ([7]; 10 μM NOC-7, endothelial and CHO-K1 cells): immediately decreased
- CFP/YFP emission ratio ([2]; 1 nM or 5 nM NOC-7): dose-dependent transient response; also recorded: NO-dependent transient change
- CFP/YFP emission ratio ([2]; 10 nM NOC-7): reaches a plateau and then slowly recovered to the initial level; also recorded: quick decrease
- CFP/YFP emission ratio ([2]; 50 nM or 100 nM NOC-7): did not show no recovery to the initial level even after 20 minutes
- CFP/YFP emission ratio ([2]; 100 nM NOC-7, after reaching the plateau): did not subsequently show significant recovery for at least 10 min
- CFP/YFP emission ratio response on repeated stimulation ([2]; second 5 nM NOC-7 stimulation after recovery to the initial value): same transient response
- CFP/YFP emission ratio ([2]; stimulated with 5 nM NOC-7, CHO-K1 coexpressing sGCα-CGY and sGCβ-CGY): immediately decreased but gradually recovered up to the initial level

Molecule: O=c1onc2n1-c1cc(Br)ccc1OC2 [NS 2028]
- transient change in the emission ratio by 5 nM NOC-7 (sGC): completely blocked

Molecule: CC[C@H](C)[C@@H]1NC(=O)[C@H](CCCNC(=N)N)NC(=O)[C@H](CC(=O)O)NC(=O)[C@H](CCSC)NC(=O)[C@H](CCCNC(=N)N)NC(=O)CNC(=O)CNC(=O)[C@H](Cc2ccccc2)NC(=O)[C@@H](NC(=O)[C@H](CO)NC(=O)[C@H](CO)NC(=O)[C@H](CCCNC(=N)N)NC(=O)[C@H](CCCNC(=N)N)NC(=O)[C@H](CC(C)C)NC(=O)[C@@H](N)CO)CSSC[C@@H](C(=O)N[C@@H](CC(N)=O)C(=O)N[C@@H](CO)C(=O)N[C@@H](Cc2ccccc2)C(=O)N[C@@H](CCCNC(=N)N)C(=O)N[C@@H](Cc2ccc(O)cc2)C(=O)O)NC(=O)CNC(=O)[C@H](CC(C)C)NC(=O)CNC(=O)[C@H](CO)NC(=O)[C@H](CCC(N)=O)NC(=O)[C@H](C)NC(=O)CNC1=O [atrial natriuretic peptide]
- CFP/YFP emission ratio of NOA-1 [3]: no significant change

Molecule: CC(C)NCC(O)c1ccc(O)c(O)c1 (stereo not drawn) [isoproterenol]
- CFP/YFP emission ratio of NOA-1 [3]: no significant change

Molecule: CCCOc1ccccc1-c1nc2nn[nH]c2c(=O)[nH]1 [zaprinast]
- latter recovery of the decreased emission ratio after 5 nM NOC-7 (phosphodiesterases (PDE); cells pretreated with zaprinast (200 μM, FIG. 3-c)): disappeared
- emission ratio (phosphodiesterases (PDE); treatment with zaprinast, NOA-1 in CHO-K1): no significant change
- CFP/YFP emission ratio (phosphodiesterases): gradually decreased and reached the saturation of NOA-1 response

Molecule: insulin: stimulation activates the PI(3)K-Akt pathway
- NO concentration in the endothelial cells ([7]; insulin stimulation): further increases the NO concentration

Source: patent US8748117B2, “Probe for detection and quantification of nitric oxide, and method for detecting and quantifying nitric oxide using the same” (Japan Science and Technology Agency, priority 2004, dated 2014)
